Assay results from the supplement of paper PMC10307832.

Tests used:
Test in all cases: relative viability (nuclei count vs DMSO), 5 days (fraction); higher = more cells survive
Zebularine + AZD7762 = compound: O=c1ncccn1[C@@H]1O[C@H](CO)[C@@H](O)[C@H]1O [Zebularine] + NC(=O)Nc1cc(-c2cccc(F)c2)sc1C(=O)N[C@H]1CCCNC1 [AZD7762] (partner 0.2 µM)
In short: (§1)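 Lung cancer cell lines were seeded in 1536-well plates and dosed by pin tool the next day, with either a single drug or a fixed anchor-drug dose combined with five library-drug doses (not always all listed) spaced in √10 steps. Five days later, one step fixed the cells and stained their nuclei (final 0.05% Triton X-100, 1% formaldehyde, 1 ug/ml Hoechst), and nuclei were counted on 4× images. Relative viability is the nuclei count in treated wells divided by the count in vehicle wells, and each value is the median of duplicate plates.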

BI-D1870 + Pictilisib = compound: CC(C)CCN1c2nc(Nc3cc(F)c(O)c(F)c3)ncc2N(C)C(=O)C1C [BI-D1870] + CS(=O)(=O)N1CCN(Cc2cc3nc(-c4cccc5[nH]ncc45)nc(N4CCOCC4)c3s2)CC1 [Pictilisib] (partner 1 µM)
In short: as §1

BI-D1870 + Decitabine = compound: CC(C)CCN1c2nc(Nc3cc(F)c(O)c(F)c3)ncc2N(C)C(=O)C1C [BI-D1870] + Nc1ncn([C@H]2C[C@H](O)[C@@H](CO)O2)c(=O)n1 [Decitabine] (partner 2 µM)
In short: as §1

Zebularine + Trametinib = compound: O=c1ncccn1[C@@H]1O[C@H](CO)[C@@H](O)[C@H]1O [Zebularine] + CC(=O)Nc1cccc(-n2c(=O)n(C3CC3)c(=O)c3c(Nc4ccc(I)cc4F)n(C)c(=O)c(C)c32)c1 [Trametinib] (partner 0.02 µM)
In short: as §1

Cell Line	relative viability (Zebularine + AZD7762; first compound 1 µM)	relative viability (Zebularine + AZD7762; first compound 3.162 µM)	relative viability (Zebularine + AZD7762; first compound 10 µM)	relative viability (Zebularine + AZD7762; first compound 31.62 µM)	relative viability (Zebularine + AZD7762; first compound 100 µM)	relative viability (BI-D1870 + Pictilisib; first compound 0.04 µM)	relative viability (BI-D1870 + Pictilisib; first compound 0.1265 µM)	relative viability (BI-D1870 + Pictilisib; first compound 0.4 µM)	relative viability (BI-D1870 + Pictilisib; first compound 1.265 µM)	relative viability (BI-D1870 + Pictilisib; first compound 4 µM)	relative viability (BI-D1870 + Decitabine; first compound 0.04 µM)	relative viability (BI-D1870 + Decitabine; first compound 0.1265 µM)	relative viability (BI-D1870 + Decitabine; first compound 0.4 µM)	relative viability (BI-D1870 + Decitabine; first compound 1.265 µM)	relative viability (BI-D1870 + Decitabine; first compound 4 µM)	relative viability (Zebularine + Trametinib; first compound 1 µM)	relative viability (Zebularine + Trametinib; first compound 3.162 µM)	relative viability (Zebularine + Trametinib; first compound 10 µM)	relative viability (Zebularine + Trametinib; first compound 31.62 µM)	relative viability (Zebularine + Trametinib; first compound 100 µM)
LCLC-103H	0.8	0.798	0.579	0.802	0.689	0.631	0.573	0.563	0.573	0.494	0.706	0.588	0.723	0.804	0.678	0.727	0.672	0.604	0.675	0.612
LK-2	0.492	0.382	0.49	0.23	0.16	0.557	0.484	0.535	0.619	0.533	0.373	0.317	0.379	0.353	0.342	0.626	0.669	0.476	0.459	0.441
LOU-NH91	0.522	0.751	0.568	0.743	0.627	0.413	0.503	0.504	0.587	0.44	0.876	0.8	0.792	0.821	0.629	0.773	0.814	0.718	0.843	0.65
LU99A	0.348	0.28	0.267	0.24	0.115	0.368	0.253	0.319	0.305	0.358	0.883	0.814	0.898	0.837	0.725	0.604	0.503	0.502	0.329	0.195
LXF-289	1.07	1.16	1.11	0.699	0.281	0.833	0.763	0.798	0.745	0.665	0.35	0.382	0.372	0.411	0.416	0.796	0.731	0.651	0.488	0.296
NCI-H23	0.3	0.375		0.23	0.254	0.625	0.445	0.433	0.421	0.26	0.336	0.329	0.306	0.333	0.242	0.486	0.443		0.405	0.412
NCI-H322M	0.555	0.606	0.572	0.522	0.528	0.579	0.526	0.411	0.526	0.475	0.721	0.631	0.68	0.655	0.729	0.489	0.515	0.481	0.551	0.509
NCI-H358	0.591	0.386	0.484	0.451	0.333	0.38	0.233	0.338	0.365	0.322	0.201	0.195	0.202	0.21	0.229	0.146	0.134	0.117	0.145	0.113
NCI-H441	1.37	1.27	0.536	0.418	0.369	0.498	0.374	0.518	0.466	0.492	0.249	0.273	0.275	0.255	0.312	0.485	0.416	0.316	0.315	0.213
NCI-H460	0.781	0.716	0.294	0.434	0.126	0.437	0.364	0.31	0.391	0.33	0.548	0.459	0.473	0.593	0.443	0.24	0.182	0.0901	0.196	0.0781
NCI-H596	1.23	1.09	0.843	1.01	1.07	0.388	0.402	0.385	0.428	0.393	1.06	0.857	0.956	1.14	0.999	0.853	0.904	0.58	0.918	0.774
NCI-H647	0.814	0.445	0.256	0.259	0.211	0.497	0.387	0.444	0.512	0.34	0.386	0.339	0.481	0.455	0.537	0.53	0.508	0.184	0.116	0.112
NCI-H650	1.03	1.04	0.908	0.551	0.317	0.9	0.745	0.87	0.811	0.651	0.336	0.339	0.331	0.314	0.286	0.895	0.97	0.826	0.471	0.262
NCI-H727	0.785	0.703	0.606	0.646	0.574	0.425	0.35	0.354	0.509	0.366	1.02	0.883	0.909	0.921	1.01	0.385	0.35	0.401	0.396	0.444
NCI-H838	0.934	0.977	0.764	0.861	0.738	0.442	0.421	0.529	0.498	0.574	0.47	0.483	0.477	0.444	0.523	0.58	0.537	0.415	0.437	0.231
NCI-H1355	0.722	0.8	0.543	0.588	0.338	0.433	0.365	0.398	0.504	0.323	0.363	0.31	0.356	0.412	0.394	0.449	0.45	0.468	0.383	0.335

Cell Line	relative viability (Zebularine + AZD7762; first compound 1 µM)	relative viability (Zebularine + AZD7762; first compound 3.162 µM)	relative viability (Zebularine + AZD7762; first compound 10 µM)	relative viability (Zebularine + AZD7762; first compound 31.62 µM)	relative viability (Zebularine + AZD7762; first compound 100 µM)	relative viability (BI-D1870 + Pictilisib; first compound 0.04 µM)	relative viability (BI-D1870 + Pictilisib; first compound 0.1265 µM)	relative viability (BI-D1870 + Pictilisib; first compound 0.4 µM)	relative viability (BI-D1870 + Pictilisib; first compound 1.265 µM)	relative viability (BI-D1870 + Pictilisib; first compound 4 µM)	relative viability (BI-D1870 + Decitabine; first compound 0.04 µM)	relative viability (BI-D1870 + Decitabine; first compound 0.1265 µM)	relative viability (BI-D1870 + Decitabine; first compound 0.4 µM)	relative viability (BI-D1870 + Decitabine; first compound 1.265 µM)	relative viability (BI-D1870 + Decitabine; first compound 4 µM)	relative viability (Zebularine + Trametinib; first compound 1 µM)	relative viability (Zebularine + Trametinib; first compound 3.162 µM)	relative viability (Zebularine + Trametinib; first compound 10 µM)	relative viability (Zebularine + Trametinib; first compound 31.62 µM)	relative viability (Zebularine + Trametinib; first compound 100 µM)
NCI-H1395	0.402	0.372	0.397	0.37	0.435	0.684	0.588	0.587	0.673	0.507	0.68	0.671	0.707	0.738	0.718	1.15	1.05	0.966	0.767	0.62
NCI-H1437	1.16	1.21	0.947	1.16	0.914	0.418	0.348	0.415	0.408	0.389	0.59	0.53	0.756	0.629	0.56	0.545	0.532	0.419	0.619	0.661
NCI-H1651	0.506	0.486	0.445	0.466	0.294	0.549	0.423	0.566	0.516	0.551	0.615	0.592	0.537	0.64	0.617	0.875	0.865	0.82	0.772	0.35
NCI-H1666	0.91	0.841	0.726	0.916	0.654	0.655	0.442	0.409	0.584	0.321	0.711	0.701	0.716	0.732	0.677	0.884	0.817	0.699	0.865	0.842
NCI-H1734	0.638	0.575	0.366	0.495	0.306	0.5	0.401	0.434	0.472	0.358	0.482	0.448	0.531	0.559	0.525	0.738	0.641	0.527	0.54	0.275
NCI-H1755	0.411	0.505	0.384	0.611	0.36	0.474	0.408	0.469	0.431	0.35	0.716	0.685	0.701	0.715	0.692	0.885	0.766	0.726	0.761	0.61
NCI-H1792	0.758	0.525	0.332	0.324	0.215	0.248	0.274	0.24	0.297	0.227	0.558	0.525	0.596	0.851	0.666	0.472	0.351	0.187	0.176	0.182
NCI-H1793	0.499	0.676	0.326	0.407	0.359	0.295	0.308	0.227	0.347	0.288	0.513	0.439	0.528	0.681	0.632	0.466	0.477	0.257	0.269	0.21
NCI-H1915	0.788	0.7	0.616	0.728	0.671	1.08	0.914	0.907	0.897	0.671	0.267	0.247	0.285	0.234	0.271	0.315	0.31	0.322	0.319	0.287
NCI-H1944	0.598	0.537	0.451	0.525	0.258	0.395	0.294	0.332	0.377	0.345	0.435	0.415	0.388	0.508	0.432	0.481	0.411	0.45	0.498	0.419
NCI-H1975	0.747	0.748	0.549	0.499	0.345	0.297	0.276	0.288	0.299	0.208	0.436	0.348	0.411	0.361	0.368	0.298	0.268	0.338	0.283	0.222
NCI-H1993	0.76	0.881	0.625	0.671	0.493	0.864	0.704	0.769	0.71	0.622	0.634	0.438	0.668	0.647	0.579	0.55	0.506	0.51	0.574	0.367
NCI-H2085	1.11	1.07	0.788	1.13	0.66	0.439	0.494	0.413	0.518	0.558	0.541	0.556	0.643	0.519	0.557	0.491	0.547	0.522	0.433	0.392
NCI-H2087	1.55	1.38	0.735	0.794	0.465	0.963	0.867	0.86	1.03	0.665	0.259	0.28	0.307	0.342	0.38	0.195	0.166	0.204	0.206	0.142
NCI-H2126	0.988	0.963	0.673	0.968	0.691	0.556	0.491	0.45	0.461	0.386	0.576	0.549	0.585	0.606	0.556	0.532	0.561	0.476	0.557	0.437
NCI-H2170	0.914	0.982	0.771	0.938	0.393	0.287	0.333	0.347	0.301	0.302	0.515	0.384	0.457	0.445	0.402	0.931	0.919	0.677	0.874	0.441
